# Tests used:
# [1] = Gravimetric moisture sorption (GMS); assay type: physicochemical; settings: (25±0.1)° C.
# Procedure: Gravimetric moisture sorption was performed with an SPSx-1μ moisture sorption analyzer (ProUmid, Ulm). The measurement cycle was started at ambient relative humidity (RH) of 30%. RH was then decreased to 5% in 5% steps, followed by a further decrease to 3% and to 0%. […] Finally, RH was increased to ambient relative humidity of 30% in 5% steps. The time per step was set to a minimum of 2 hours and a maximum of 6 hours. If an equilibrium condition with a constant mass of =0.01% within 1 hour was reached before the maximum time for all examined samples the sequential humidity step was applied before the maximum time of 6 hours. If no equilibrium was achieved the consecutive humidity step was applied after the maximum time of 6 hours. The temperature was (25±0.1)° C.
# [2] = Thermogravimetric analysis (TGA); assay type: physicochemical; settings: heated from 25° C. at 10 K/min, nitrogen purge
# Procedure: TGA was performed on a Mettler TGA/DSC 1 instrument. The sample (6.53 mg) was heated in a 100 microliter aluminium pan, closed with an aluminium lid, from 25 to 250° C. at a rate of 10 K/min. The lid was automatically pierced at the beginning of the measurement. Nitrogen (purge rate 30 mL/min) was used as purge gas.
smiles,measurement,setting,value
C=CC(=O)N1CCC(CNc2ncnc(N)c2-c2ccc(Oc3ccccc3)cc2)CC1 [crystalline evobrutinib mandelate form],hygroscopic behaviour,[1]; GMS 0-90% RH,slightly hygroscopic
same,"physical stability during moisture sorption/desorption (hysteresis, PXRD after the experiment)","[1]; GMS cycle 0-90% RH, PXRD after the experiment",no structural changes appear during the experiment
same,mass difference in the sorption cycle between 0 and 80% RH,"[1]; GMS sorption cycle, 0 to 80% RH",about 0.5 w-%
same,maximum uptake between 0 and 90% RH,"[1]; GMS, 0 to 90% RH",about 0.6%
same,mass loss from the beginning of the measurement until about 170° C.,[2],about 0.1%
